Measurements from paper PMC7997269, “Oral Proteasomal Inhibitors Ixazomib, Oprozomib, and Delanzomib Upregulate the Function of Organic Anion Transporter 3 (OAT3): Implications in OAT3-Mediated Drug-Drug Interactions” (Pharmaceutics, 2021).
Values belong to the molecule of their own block, whether it stands above or below them.

How the values were obtained:
20S proteasome = test system: T1, 20S proteasome; experiment: […] activity with SUC-LLVY-AMC in lysate after […] h treatment of intact COS-7 cells; type: cell-based; conditions: 37 °C; reversible; chymotrypsin-like activity
T1 construct: gene PSMB5; endogenous 20S proteasome of hOAT3-expressing COS-7 cells; activity read in lysate of drug-treated cells with SUC-LLVY-AMC (chymotrypsin-like, beta5); complex of 28 subunits

OAT3 (hOAT3) = biological target: T2, OAT3 (hOAT3) (Homo sapiens, UniProt Q8TCC7); experiment: cis-inhibition of [3H]estrone sulfate uptake in hOAT3-expressing COS-7 cells, […] min; type: cell-based
T2 construct: gene SLC22A8; full-length human OAT3 with fused Myc tag, stably expressed in COS-7 cells; ~80 kDa on blot
T2 sequence (Q8TCC7 1-542): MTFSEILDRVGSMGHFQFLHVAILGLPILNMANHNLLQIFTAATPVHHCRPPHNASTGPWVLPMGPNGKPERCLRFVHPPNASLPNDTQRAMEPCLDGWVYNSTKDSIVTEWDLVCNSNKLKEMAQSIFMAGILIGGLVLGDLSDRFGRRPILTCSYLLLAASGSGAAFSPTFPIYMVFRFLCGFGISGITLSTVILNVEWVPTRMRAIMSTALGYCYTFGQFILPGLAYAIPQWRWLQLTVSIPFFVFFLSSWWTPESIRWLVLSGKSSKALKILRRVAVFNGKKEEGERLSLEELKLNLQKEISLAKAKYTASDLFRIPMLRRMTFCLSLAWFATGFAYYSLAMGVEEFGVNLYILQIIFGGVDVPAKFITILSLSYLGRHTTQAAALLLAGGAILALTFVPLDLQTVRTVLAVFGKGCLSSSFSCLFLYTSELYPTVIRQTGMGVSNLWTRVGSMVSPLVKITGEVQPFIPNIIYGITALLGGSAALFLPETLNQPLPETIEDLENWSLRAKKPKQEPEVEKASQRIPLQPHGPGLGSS

[1] = substrate: C[C@]12CC[C@@H]3c4ccc(OS(=O)(=O)O)cc4CC[C@H]3[C@@H]1CCC2=O; experiment: cells, lysate or membranes; type: cell-based, Homo sapiens; conditions: untreated cells; PBS/Ca2+/Mg2+; 0.3-10 µM; labelled compound (3H); parental-cell uptake subtracted

Molecule: CC(C)C[C@H](NC(=O)CNC(=O)c1cc(Cl)ccc1Cl)B(O)O [ixazomib]
% inhibition at 30 nM (20S proteasome): 50 (95% CI: 46 to 54)

Molecule: CC(C)C[C@H](NC(=O)[C@@H](NC(=O)c1cccc(-c2ccccc2)n1)[C@@H](C)O)B(O)O [delanzomib]
% inhibition at 30 nM (20S proteasome): 61 (95% CI: 57 to 65)

inhibition at 5 µM (OAT3 (hOAT3)): 40%
Molecule: CCCN(CCC)S(=O)(=O)c1ccc(C(=O)O)cc1 [probenecid]

B1: OAT3 (hOAT3) (Homo sapiens) (protein)
chain: T2 sequence (Q8TCC7 1-542)
notes: full-length human OAT3 with fused Myc tag, stably expressed in COS-7 cells; ~80 kDa on blot
Km [1]: 4.2 ± 0.3 µM
